{"source": "patent US20200147194A1", "about": "“PEPTIDE VACCINE AND PEPTIDE VACCINE COMPOSITION FOR CRANIAL NERVE DISEASE” (KEIO UNIVERSITY, priority 2017, published 2020)", "origin": "cited, not measured here", "test_system": "pre-alteration peptides (SEQ ID NO:12)", "data": [{"substance": "SEQ ID NO:16: SEQ ID NO:12 with leucine substituted for the second amino acid from the N-terminus; HLA-A*02:01-binding, VEGFR-2 (VLAMFFWLL; modified peptide)", "values": [{"measurement": "CTLs induced by stimulation by the peptide: recognition of pre-alteration peptides (SEQ ID NO:12)", "value": "able recognize and damage"}]}]}
